Laboratory results from patent US6306853A, “1,4-Dihydropyridine derivatives” (Nikken Chemicals Co., Ltd., priority 1998, dated 2001).

What was measured:
[1] = Acute toxicity test in mice, intraperitoneal; details: mouse, in vivo, ip, 7 days observation
Experimental: Animals used: ddY male mice (SLC Japan), 4-5 weeks old, three to five mice per group.
Test method: The compound of the present invention was suspended in 0.5% sodium carboxymethylcellulose (CMC-Na) containing 0.1% Tween 80. It was administered to the mice intraperitoneally in amounts of 250, 500 or 1000 mg/kg in groups of three to five mice. The survival of the animals was observed up until 7 days after administration and LD50 value was calculated according to a Probit method.

[2] = system: VCR resistant murine leukemia (P388/VCR) cells; experiment: In vivo overcoming of resistance in VCR resistant murine leukemia (P388/VCR) bearing mice, etoposide with compound 20 mg/kg; design: species or system CDF1 female mice; details: VP-16 3 mg/kg + compound 20 mg/kg, i.v. once per day for 5 days; for Rate of prolongation of life T/C: vs control
Experimental: In Vivo Test of Action Suppressing Proliferation of Cancer Cells by Combined Administration of Anti-cancer Drug Etoposide
Effect of Overcoming Resistance to an Anti-cancer Drug for VCR Resistant Murine Leukemia Cell Bearing Mice
1.2×10^5 VCR resistant murine leukemia (P388/VCR) cells were transplanted intravenously into groups of 5-6 CDF1 female mice, then the compound of the present invention (20 mg/kg) and Etoposide (VP-16) (3 mg/kg) were administered intravenously once per day for 5 days, after dissolving them in a physiological salt solution containing a small amount of hydrochloric acid. The observation was started from the next day. The number of survival days were found and the life prolonging rate (T/C) with respect to the controls was found. The effect in overcoming resistance to an anti-cancer drug (T/V) was found by the following formula.
Effect of overcoming resistance to the anti-cancer drug (T/V) %
=[(Rate of prolongation of life using VP-16 and the present compound (T/C))/(Rate of prolongation of life using VP-16 alone (T/C))]×100

[3] = system: thoracic aorta of the rat; experiment: Action easing KCl contraction in rat arteries; details: rat thoracic aorta ring, 50 mM KCl, compound 10^-6 M; read-out: Inhibitory rate of hyperpotassium contraction at 10^-6 M
Experimental: Action Easing KCl Contraction in Rat Arteries
The specimen was stabilized for approximately 60 minutes, then a potassium chloride solution was added to the Magnus tube to give a final concentration of 50 mM. The positive control compound or the compound of the present invention was cumulatively added to become 1×10^-6 M when the contraction reaction occurring at that time reached equilibrium. The contraction force was recorded by an FD-pickup (Nihon Koden) via a polygraph (Nihon Koden).

KB/VJ 300 cells [4] = experiment: Degree of resistance to ADM (ratio of ADM LD50 concentrations) in multi-drug resistant KB/VJ 300 cells on combined administration of doxorubicin and test compound; type: cell-based, human; details: VJ-300 (resistant) cells; ADM + test compound 1 μg/ml; relative to ADM alone in KB = 1
Experimental: In Vitro Test of Action Suppressing Proliferation of Cancer Cells combined administration of Doxorubicin
(§1) Human rhinopharynx cancer derived KB cells (i.e., sensitive cells) and their multi-drug resistant clone KB/VJ 300 cells (i.e., resistant cells) were used as the test cells. As the incubation solutions, use was made of 10% fetal calf serum (Flow Laboratories) and Eagle MEM medium (Nissui Seiyaku) containing 0.292 mg/ml of L-glutamine (Flow Laboratories). The tests of the action for overcoming resistance to anti-cancer drugs or action for increasing the effect of the anti-cancer drug with the combined administration of the anti-cancer drug doxorubicin (i.e., adriamycin, ADM) and the test compound were performed as follows:
The test cells were suspended in incubation solutions and adjusted to a cell density of about 200 cells/ml. The cell suspensions were injected in 2 ml amounts into petri dishes and were incubated in a CO2 gas incubator (5% CO2, 95% air) at 37° C. for 24 hours. Then, 5-10 μl of a predetermined concentration of the aqueous ADM solution and a predetermined concentration of a DMSO solution of the test compound were added, then the incubation was continued for a further 6 days. After the end of the incubation, the result was immobilized with methanol, Tripan blue stained and measured for the number of colonies per dish. […]

KB/VJ 300 cells [5] = experiment: Degree of resistance to VCR in multi-drug resistant VJ-300 cells on combined administration of vincristine and test compound; type: cell-based, human; details: relative to KB = 1
Experimental: as §1, with “action for increasing the effect of the anti-cancer drug with the combined administration of the anti-cancer drug doxorubicin (i.e., adriamycin, ADM) and the test compound were performed as follows:” left out
The test cells were suspended in incubation solutions and adjusted to a cell density of about 200 cells/ml. The cell suspensions were injected in 2 ml amounts into petri dishes and were incubated in a CO2 gas incubator (5% CO2, 95% air) at 37° C. for 24 hours. […] After the end of the incubation, the result was immobilized with methanol, Tripan blue stained and measured for the number of colonies per dish. The results were used to prepare a volume-reaction curve. From this, the ADM concentration of the 50% cell survival rate (LD50 ) was calculated and the effect for overcoming resistance to anti-cancer drugs and the effect for increasing the effect of anti-cancer drugs were judged. The results are shown in Table 12 to Table 14 using the concentration of LD50 of ADM in the ADM alone group when KB cells were used as the resistance degree 1 and calculating the resistances of the following LD50 concentrations as relative ratios. […]

multidrug resistance = details: literature statement in words; cited from earlier work

Molecule | Average days of survival [2] [days] | Rate of prolongation of life T/C [2] [%] | inhibition at 1 µM [3] [%] | further results
CCOC(=O)C1=C(c2ccc(-n3c(C)nc4cnccc43)cc2)NC(C)=C(C(=O)OCC#Cc2cccnc2)C1CCc1ccccc1 (stereo not shown) [Compound 9, 6-Methyl-2-[4-(2-methylimidazo[4,5-c]pyridin-1-yl)phenyl]-4-(2-phenylethyl)-1,4-dihydropyridin-3,5-dicarboxylate 3-ethylester 5-[3-(3-pyridyl)-2-propynyl]ester] | 15.0 | 163 | – | LD50 at 168 h [1]: > 1000 mg/kg
CCOC(=O)C1=C(c2ccc(-n3ccnc3)cc2)NC(C)=C(C(=O)OCC#Cc2cccnc2)C1/C=C/c1ccccc1 (stereo not shown) [Compound 24, 2-[4-(1-Imidazolyl)phenyl]-6-methyl-4-[(E)-2-phenylethenyl]-1,4-dihydropyridin-3,5-dicarboxylate 3-ethylester 5-[3-(3-pyridyl)-2-propynyl]ester] | – | – | – | LD50 at 168 h [1]: > 1000 mg/kg
CCOC(=O)C1=C(c2ccc(-n3c(C)nc4cnccc43)cc2)NC(C)=C(C(=O)OCC#Cc2cccnc2)C1C (stereo not shown) [Compound 1, 4,6-dimethyl-2-[4-(2-methylimidazo[4,5-c]pyridin-1-yl)phenyl]-1,4-dihydropyridin-3,5-dicarboxylic acid 3-ethylester 5-[3-(3-pyridyl)-2-propynyl]ester] | 13.6 | 148 | 0 | –
CCOC(=O)C1=C(c2ccc(-n3c(C)nc4cnccc43)cc2)NC(C)=C(C(=O)OCC#Cc2cccnc2)C1Cc1ccccc1 (stereo not shown) [Compound 6, 4-Benzyl-6-methyl-2-[4-(2-methylimidazo[4,5-c]pyridin-1-yl)phenyl]-1,4-dihydropyridin-3,5-dicarboxylate 3-ethylester 5-[3-(3-pyridyl)-2-propynyl]ester] | 16.0 | 174 | 7.5 | –
CCOC(=O)C1=C(c2ccc(-n3c(C)nc4cnccc43)cc2)NC(C)=C(C(=O)OCC#Cc2cccnc2)C1/C=C/c1ccccc1OC (stereo not shown) [Compound 14, 4-[(E)-2-(2-Methoxyphenyl)ethenyl]-6-methyl-2-[4-(2-methylimidazo[4,5-c]pyridin-1-yl)phenyl]-1,4-dihydropyridin-3,5-dicarboxylate 3-ethylester 5-[3-(3-pyridyl)-2-propynyl]ester] | 15.7 | 154 | 0 | –
6-Methyl-2-[4-(2-methylimidazo[4,5-b]pyridin-1-yl)phenyl]-4-(2-phenylethyl)-1,4-dihydropyridin-3,5-dicarboxylate 3-ethylester 5-[3-(3-pyridyl)-2-propynyl]ester [Compound 51] | – | – | – | Degree of resistance for ADM, VJ-300 (KB/VJ 300 cells [4]): 1.43
CCOC(=O)C1=C(c2ccc(-n3c(C)nc4cnccc43)cc2)NC(C)=C(C(=O)OCC#Cc2cccnc2)C1CCc1ccsc1 (stereo not shown) [Compound 17, 6-Methyl-2-[4-(2-methylimidazo[4,5-c]pyridin-1-yl)phenyl]-4-[2-(3-thienyl)ethyl]-1,4-dihydropyridin-3,5-dicarboxylate 3-ethylester 5-[3-(3-pyridyl)2-propynyl]ester] | 13.4 | 146 | 0 | –
CCCCCC1C(C(=O)OC(C)C#Cc2cccnc2)=C(C)NC(c2ccc(-n3c(C)nc4cnccc43)cc2)=C1C(=O)OCC (stereo not shown) [Compound 22, 6-Methyl-2-[4-(2-methylimidazo[4,5-c]pyridin-1-yl)phenyl]-4-pentyl-1,4-dihydropyridin-3,5-dicarboxylate 3-ethylester 5-[1-methyl-3-(3-pyridyl)-2-propynyl]ester] | 14.6 | 159 | 0 | LD50 at 168 h [1]: > 1000 mg/kg
6-Methyl-2-[4-(2-methylimidazo[4,5-b]pyridin-1-yl)phenyl]-4-pentyl-1,4-dihydropyridin-3,5-dicarboxylate 3-ethylester 5-[3-(3-pyridyl)2-propynyl]ester [Compound 52] | – | – | – | Degree of resistance for ADM, VJ-300 (KB/VJ 300 cells [4]): 1.60
CCOC(=O)C1=C(c2ccc(-n3c(C)nc4cnccc43)cc2)NC(C)=C(C(=O)OCC#Cc2cccnc2)C1/C=C/c1ccco1 (stereo not shown) [Compound 16, 4-[(E)-2-(2-Furyl)ethenyl]-6-methyl-2-[4-(2-methylimidazo[4,5c]pyridin-1-yl)phenyl]1,4-dihdropyridin-3,5-dicarboxylate 3-ethylester 5-[3-(3-pyridyl)-2-propynyl]ester] | 15.0 | 147 | 0 | –
CC[C@]1(O)C[C@H]2CN(CCc3c([nH]c4ccccc34)[C@@](C(=O)OC)(c3cc4c(cc3OC)N(C=O)[C@H]3[C@@](O)(C(=O)OC)[C@H](OC(C)=O)[C@]5(CC)C=CCN6CC[C@]43[C@@H]65)C2)C1 [VCR, vincristine] | – | – | – | Degree of resistance for VCR, VJ-300 (VCR alone, control) (KB/VJ 300 cells [5]): 903-970
COC(=O)C1=C(C)NC(C)=C(C(=O)OCCN(C)Cc2ccccc2)C1c1cccc([N+](=O)[O-])c1 (stereo not shown) [nicardipine, reference compound] | – | – | 100 | effect of combined administration with an anti-cancer drug on multidrug resistance (multidrug resistance): effective
